Experimental data: patent US20180057507A1, “INHIBITORS OF DUAL LEUCINE ZIPPER (DLK) KINASE FOR THE TREATMENT OF DISEASE” (Board of Regents, The University of Texas System, priority 2016, published 2018)
pIC50, pKd: −log10 of the molar value.

What was measured:
human DLK [1] = biological target: T1, human DLK (Homo sapiens, UniProt Q12852); experiment: Phospho-cJun Cellular Assay; assay type: cell-based; parameters: expressed in transfected cells; conditions: HEK293 cells stably transfected with Dox-inducible human DLK; p-cJun (Ser63); 5 h compound incubation
T1 sequence (Q12852 1-859): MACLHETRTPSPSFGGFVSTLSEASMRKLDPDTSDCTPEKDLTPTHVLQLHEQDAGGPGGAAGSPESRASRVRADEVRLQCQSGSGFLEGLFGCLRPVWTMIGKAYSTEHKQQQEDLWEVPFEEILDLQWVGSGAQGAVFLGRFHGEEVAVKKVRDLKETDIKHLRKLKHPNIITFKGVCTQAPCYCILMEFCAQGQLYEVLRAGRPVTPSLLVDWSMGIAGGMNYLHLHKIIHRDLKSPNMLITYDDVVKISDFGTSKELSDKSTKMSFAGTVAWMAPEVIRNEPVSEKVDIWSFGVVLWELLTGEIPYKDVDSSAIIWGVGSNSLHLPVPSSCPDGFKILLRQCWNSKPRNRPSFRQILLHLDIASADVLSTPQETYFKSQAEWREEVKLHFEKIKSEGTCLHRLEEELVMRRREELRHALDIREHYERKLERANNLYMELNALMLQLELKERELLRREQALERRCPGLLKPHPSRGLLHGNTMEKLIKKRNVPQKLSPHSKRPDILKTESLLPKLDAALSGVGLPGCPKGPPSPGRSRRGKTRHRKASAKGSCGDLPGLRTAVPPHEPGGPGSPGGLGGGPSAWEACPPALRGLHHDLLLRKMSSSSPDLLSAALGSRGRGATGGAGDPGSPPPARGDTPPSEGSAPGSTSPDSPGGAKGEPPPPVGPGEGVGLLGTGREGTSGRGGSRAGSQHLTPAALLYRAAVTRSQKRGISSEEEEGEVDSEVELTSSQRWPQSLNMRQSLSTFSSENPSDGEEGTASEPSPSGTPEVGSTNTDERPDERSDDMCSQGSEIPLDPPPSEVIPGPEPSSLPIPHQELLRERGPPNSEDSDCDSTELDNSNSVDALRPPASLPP
Procedure: Phospho-cJun Cellular Assay
HEK293 cells stably transfected with a Dox-inducible human DLK were plated into a 384-well plate in 20 μl (40,000 cells/well) of DMEM medium (without phenol red) containing 10% fetal bovine serum, 1.5 μg/ml doxycycline and 1 μg/ml puromycin. The cells as negative control were grown in the absence of doxycycline. The plate was incubated at 37° C., 5% CO2 for 20 h, before DMSO (control) or compounds diluted in medium were added. The cells were incubated at 37° C. for an additional 5 h, followed by lysis and the addition detection antibodies from p-cJun (Ser63) cellular assay kit (Cisbio) per manufacturer protocol. The standard dose response curves were fitted by Genedata Screener software using the variable-slope model: Signal=Signalnegative control+(SignalDMSO control−Signalnegative control)/(1+(IC50/Dose)̂Hill slope). Only signal and dose in the equation were treated as known values.

human DLK [2] = biological target: T1, human DLK; experiment: DLK Kd Determinations (KINOMEscan KdELECT, DiscoveRx); parameters: full length of human DLK (amino acids 1-859); host or cells: transiently transfected HEK293 cells; unpurified extract; conditions: fusion protein of full length human DLK (amino acids 1-859) and NFkB DNA binding domain; qPCR readout; duplicate
Outline: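 Competition binding of full-length human DLK (aa 1-859)-NFkB DBD fusion, DNA-tagged, from HEK293 extracts against an immobilized ligand; 1 h at room temperature, 0.9% DMSO. Bead-bound kinase was quantified by qPCR. Kd came from an 11-point 3-fold series (top 30,000 nM), in duplicate, with Hill slope fixed at −1.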

Compound | pIC50 (human DLK [1]) | pKd (human DLK [2])
CN1CCN(C2C[C@@H]3[C@H](C2)[C@H]3n2cc(-c3cnc(N)c(OC(F)(F)F)c3)nc2C2CC2)CC1 (stereo partly shown) [Example 135, 5-(2-cyclopropyl-1-(3-(4-methylpiperazin-1-yl)bicyclo[3.1.0]hexan-6-yl)-1H-imidazol-4-yl)-3-(trifluoromethoxy)pyridin-2-amine] | 6.46 | 7.77
Nc1ncc(-c2cn(C3CC4(CC(N5CCOCC5)C4)C3)c(C3CC3)n2)cc1OC(F)(F)F (stereo not shown) [Example 41, 5-(2-cyclopropyl-1-(6-morpholinospiro[3.3]heptan-2-yl)-1H-imidazol-4-yl)-3-(trifluoromethoxy)pyridin-2-amine] | 6.32 | 7.42
Nc1ncc(-c2cn([C@H]3[C@@H]4CNC[C@@H]43)c(CC3CC3)n2)cc1OC(F)(F)F [Example 90, 5-(1-((1R,5S,6s)-3-azabicyclo[3.1.0]hexan-6-yl)-2-(cyclopropylmethyl)-1H-imidazol-4-yl)-3-(trifluoromethoxy)pyridin-2-amine] | 5.95 | 7.40
Nc1ncc(-c2cn([C@H]3[C@@H]4CC(N5CCOCC5)C[C@@H]43)c(C3CC3)n2)cc1C(F)(F)F (single isomer, unassigned) [Example 128a, 5-(2-cyclopropyl-1-(3-morpholinobicyclo[3.1.0]hexan-6-yl)-1H-imidazol-4-yl)-3-(trifluoromethyl)pyridin-2-amine] | 6.13 | 7.40
CC(C)c1nc(-c2cnc(N)c(C(F)(F)F)c2)cn1[C@H]1[C@@H]2CC(N3CCN(CCF)CC3)C[C@@H]21 (single isomer, unassigned) [Example 155a, 5-(1-(3-(4-(2-fluoroethyl)piperazin-1-yl)bicyclo[3.1.0]hexan-6-yl)-2-isopropyl-1H-imidazol-4-yl)-3-(trifluoromethyl)pyridin-2-amine] | 5.93 | 7.64
Nc1ncc(-c2cn([C@H]3[C@@H]4CC(N5CCOCC5)C[C@@H]43)c(CC3CC3)n2)cc1C(F)(F)F (single isomer, unassigned) [Example 138a, 5-(2-(cyclopropylmethyl)-1-(3-morpholinobicyclo[3.1.0]hexan-6-yl)-1H-imidazol-4-yl)-3-(trifluoromethyl)pyridin-2-amine] | 6.00 | 7.64
CC(C)c1nc(-c2cnc(N)c(OC(F)(F)F)c2)cn1[C@H]1C2CC(N3C[C@@H]4C[C@H]3CO4)C[C@@H]21 (stereo in doubt) [Example 134, 5-(1-((1S,5S)-3-((1S,4S)-2-oxa-5-azabicyclo[2.2.1]heptan-5-yl)bicyclo[3.1.0]hexan-6-yl)-2-isopropyl-1H-imidazol-4-yl)-3-(trifluoromethoxy)pyridin-2-amine] | 5.98 | 7.48
CC(C)Cc1nc(-c2cnc(N)c(C(F)(F)F)c2)cn1[C@H]1[C@@H]2CC(N3CCN(CCF)CC3)C[C@@H]21 (single isomer, unassigned) [Example 160b, 5-(1-(3-(4-(2-fluoroethyl)piperazin-1-yl)bicyclo[3.1.0]hexan-6-yl)-2-isobutyl-1H-imidazol-4-yl)-3-(trifluoromethyl)pyridin-2-amine] | 6.11 | 8.06
Nc1ncc(-c2cn([C@H]3[C@@H]4CNC[C@@H]43)c(C3CC3)n2)cc1OC(F)(F)F [Example 53, 5-(1-((1R,5S,6s)-3-azabicyclo[3.1.0]hexan-6-yl)-2-cyclopropyl-1H-imidazol-4-yl)-3-(trifluoromethoxy)pyridin-2-amine] | 6.10 | 7.24
CC(C)Cc1nc(-c2cnc(N)c(C(F)(F)F)c2)cn1[C@H]1[C@@H]2CC(N3CCN(C)CC3)C[C@@H]21 (single isomer, unassigned) [Example 146a, 5-(2-isobutyl-1-(3-(4-methylpiperazin-1-yl)bicyclo[3.1.0]hexan-6-yl)-1H-imidazol-4-yl)-3-(trifluoromethyl)pyridin-2-amine] | 6.42 | 8.19
CC(C)Cc1nc(-c2cnc(N)c(OC(F)(F)F)c2)cn1[C@H]1[C@@H]2CC(N3CCN(C)CC3)C[C@@H]21 (stereo partly shown) [Example 158, 5-(2-isobutyl-1-(3-(4-methylpiperazin-1-yl)bicyclo[3.1.0]hexan-6-yl)-1H-imidazol-4-yl)-3-(trifluoromethoxy)pyridin-2-amine] | 6.30 | 7.92
COCCN1C[C@@H]2[C@H](C1)[C@H]2n1cc(-c2cnc(N)c(C(F)(F)F)c2)nc1CC1CC1 [Example 78, 5-(2-(cyclopropylmethyl)-1-((1R,5S,6s)-3-(2-methoxyethyl)-3-azabicyclo[3.1.0]hexan-6-yl)-1H-imidazol-4-yl)-3-(trifluoromethyl)pyridin-2-amine] | 6.11 | 7.19
CC(C)c1nc(-c2cnc(N)c(OC(F)(F)F)c2)cn1[C@H]1[C@@H]2CC(N3CCOC[C@@H]3C)C[C@@H]21 (single isomer, unassigned) [Example 157a] | 6.05 | 7.24
CN1CCN(C2C[C@@H]3[C@H](C2)[C@H]3n2cc(-c3cnc(N)c(C(F)(F)F)c3)nc2C2CC2)CC1 (single isomer, unassigned) [Example 129b, 5-(2-cyclopropyl-1-(3-(4-methylpiperazin-1-yl)bicyclo[3.1.0]hexan-6-yl)-1H-imidazol-4-yl)-3-(trifluoromethyl)pyridin-2-amine] | 6.20 | 7.80
Nc1ncc(-c2cn([C@H]3[C@@H]4CC(N5CCCOCC5)C[C@@H]43)c(C3CC3)n2)cc1C(F)(F)F (single isomer, unassigned) [Example 141b, 5-(1-(3-(1,4-oxazepan-4-yl)bicyclo[3.1.0]hexan-6-yl)-2-cyclopropyl-1H-imidazol-4-yl)-3-(trifluoromethyl)pyridin-2-amine] | 6.23 | 7.80
CC(C)c1nc(-c2cnc(N)c(OC(F)(F)F)c2)cn1[C@H]1[C@@H]2CC(N3CCCOCC3)C[C@@H]21 (single isomer, unassigned) [Example 20a, 5-(1-(3-(1,4-oxazepan-4-yl)bicyclo[3.1.0]hexan-6-yl)-2-isopropyl-1H-imidazol-4-yl)-3-(trifluoromethoxy)pyridin-2-amine] | 6.02 | 7.82
CC(C)c1nc(-c2cnc(N)c(OC(F)(F)F)c2)cn1[C@H]1[C@@H]2CC(N3CCN(CCF)CC3)C[C@@H]21 (single isomer, unassigned) [Example 156b, 5-(1-(3-(4-(2-fluoroethyl)piperazin-1-yl)bicyclo[3.1.0]hexan-6-yl)-2-isopropyl-1H-imidazol-4-yl)-3-(trifluoromethoxy)pyridin-2-amine] | 6.06 | 7.96
Nc1ncc(-c2cn([C@H]3[C@@H]4CC(N5CCN(CCF)CC5)C[C@@H]43)c(CC3CC3)n2)cc1OC(F)(F)F (single isomer, unassigned) [Example 152a, 5-(2-(cyclopropylmethyl)-1-(3-(4-(2-fluoroethyl)piperazin-1-yl)bicyclo[3.1.0]hexan-6-yl)-1H-imidazol-4-yl)-3-(trifluoromethoxy)pyridin-2-amine] | 5.87 | 7.43
Nc1ncc(-c2cn([C@H]3[C@@H]4CC(N5CCCOCC5)C[C@@H]43)c(C3CC3)n2)cc1OC(F)(F)F (stereo partly shown) [Example 136, 5-(1-(3-(1,4-oxazepan-4-yl)bicyclo[3.1.0]hexan-6-yl)-2-cyclopropyl-1H-imidazol-4-yl)-3-(trifluoromethoxy)pyridin-2-amine] | 6.18 | 7.70
Nc1ncc(-c2cn([C@H]3[C@@H]4CC(N5CCN(CCF)CC5)C[C@@H]43)c(CC3CC3)n2)cc1C(F)(F)F (single isomer, unassigned) [Example 162b, 5-(2-(cyclopropylmethyl)-1-(3-(4-(2-fluoroethyl)piperazin-1-yl)bicyclo[3.1.0]hexan-6-yl)-1H-imidazol-4-yl)-3-(trifluoromethyl)pyridin-2-amine] | 6.11 | 8.25
